# Assay: Effect of TB4 on bodyweight of db/db mice
# Type: in vivo, mouse
# Conditions: for Weight: db/db mice, mean ± SE
# Experimental: All experimental procedures were carried out in accordance with NIH Guide for the Care and Use of Laboratory Animals and approved by the institutional Animal Care and Use Committee of Henry Ford Hospital. Male BKS.Cg-m+/+Lepr^db/J(db/db) mice (Jackson Laboratories, Bar Harbor, Me.) aged 20 weeks were used. Age-matched heterozygotes mice (db/m), a non-penetrant genotype (Jackson Laboratories), were used as the control animals.
# db/db mice at age 20 weeks were treated with Tβ4 at a dose of 6 mg/kg or 24 mg/kg (RegeneRx, Inc, intraperitoneal injection, i.p.), every 3 days for 4 weeks (n=10/group). db/db mice (n=10/group) at the same age treated with same volume of saline were used as a control group. Age-matched db/m mice treated with Tβ4 (6 mg/kg i.p. every 3 days, n=10/group) or saline (n=10/group) were used as additional control groups. All mice were sacrificed 8 weeks after the initial treatment. Doses of Tβ4 were selected based on published studies^13.
smiles,measurement,setting,value
"CC[C@H](C)[C@H](NC(=O)[C@H](CCC(=O)O)NC(=O)[C@H](C)NC(=O)[C@H](CCSC)NC(=O)[C@H](CC(=O)O)NC(=O)[C@@H]1CCCN1C(=O)[C@H](CCCCN)NC(=O)[C@H](CC(=O)O)NC(=O)[C@H](CO)NC(C)=O)C(=O)N[C@@H](CCC(=O)O)C(=O)N[C@@H](CCCCN)C(=O)N[C@@H](Cc1ccccc1)C(=O)N[C@@H](CC(=O)O)C(=O)N[C@@H](CCCCN)C(=O)N[C@@H](CO)C(=O)N[C@@H](CCCCN)C(=O)N[C@@H](CC(C)C)C(=O)N[C@@H](CCCCN)C(=O)N[C@@H](CCCCN)C(=O)N[C@H](C(=O)N[C@@H](CCC(=O)O)C(=O)N[C@H](C(=O)N[C@@H](CCC(N)=O)C(=O)N[C@@H](CCC(=O)O)C(=O)N[C@@H](CCCCN)C(=O)N[C@@H](CC(N)=O)C(=O)N1CCC[C@H]1C(=O)N[C@@H](CC(C)C)C(=O)N1CCC[C@H]1C(=O)N[C@@H](CO)C(=O)N[C@@H](CCCCN)C(=O)N[C@@H](CCC(=O)O)C(=O)N[C@H](C(=O)N[C@H](C(=O)N[C@@H](CCC(=O)O)C(=O)N[C@@H](CCC(N)=O)C(=O)N[C@@H](CCC(=O)O)C(=O)N[C@@H](CCCCN)C(=O)N[C@@H](CCC(N)=O)C(=O)N[C@@H](C)C(=O)NCC(=O)N[C@@H](CCC(=O)O)C(=O)N[C@@H](CO)C(=O)O)[C@@H](C)CC)[C@@H](C)O)[C@@H](C)O)[C@@H](C)O [Tβ4, thymosin beta 4]",Weight,"TB4 6 mg/kg i.p. every 3 days for 4 weeks, 0 w (before the treatment)",59.5 ± 0.9 g
same,Weight,"TB4 6 mg/kg, 2 w",57.1 ± 1.1 g
same,Weight,"TB4 6 mg/kg, 4 w",56.2 ± 1.2 g
same,Weight,"TB4 6 mg/kg, 6 w",53.7 ± 1.5 g
same,Weight,"TB4 6 mg/kg, 8 w",53.0 ± 1.7 g
same,Weight,"TB4 24 mg/kg i.p. every 3 days for 4 weeks, 0 w (before the treatment)",58.9 ± 1.1 g
same,Weight,"TB4 24 mg/kg, 2 w",58.1 ± 1.2 g
same,Weight,"TB4 24 mg/kg, 4 w",55.7 ± 1.5 g
same,Weight,"TB4 24 mg/kg, 6 w",56.0 ± 1.4 g
same,Weight,"TB4 24 mg/kg, 8 w",54.8 ± 1.6 g
same,animal body weight,db/db mouse treated with Tβ4 (Table 1),did not significantly alter

# — US9775883B2, “Methods, systems, and compositions for promoting recovery of peripheral neuropathy” (HENRY FORD HEALTH SYSTEM, priority 2011, dated 2017)
